Structures are written as SMILES. Read-outs that look alike come from different tables or passages of the source.

Experiment [1] concerns the target T1, human 5-HT2A (Homo sapiens, UniProt P28223).
T1 construct: expressed in transfected cells; host or cells: HEK293 (Flp-In system, pcDNA5.0FRT)
As to the kind of experiment: Primary radioligand competitive binding assay, [3H]ketanserin. The settings on record: ligand 10 μM, HEK293 cells. Here is the method:
(§1) HEK293 cells and CHO cells were used in the radioligand binding assay while tsA-201 cells were used in the electrophysiological study. Human CB2, human 5-HT2A, rat 5-HT2C used in the binding studies were cloned into pcDNA5.0FRT and cell lines were made using the FlpIn system from Invitrogen. tsA-201 cell culture and transient calcium channel transfection were performed as described previously. In brief, tsA-201 cells were transfected using the calcium phosphate method. Cav3.1, 3.2 and 3.3 α1 subunits were transfected individually with yellow fluorescent protein as a transfection marker.
(§2) Radioligand binding data were obtained using National Institute of Mental Health's Psychoactive Drug Screening Program (NIMH/PDSP) using the same protocol described for CB1 and CB2 binding experiments. Transfected HEK293 (human 5-HT2A or rat 5-HT2C) cells were used. The radioligands were [^3H]ketanserin (0.5 nM) and [^3H]mesulergine (0.5 nM) for respectively 5-HT2A and 5-HT2C experiments. Non-specific binding was determined in the presence of 10 μM chlorpromazine for both 5-HT2A and 5-HT2C binding experiments. Cells were harvested and homogenized in 50 mM Tris HCl, 10 mM MgCl2, 0.1 mM EDTA, pH 7.4. Incubation of radioreceptor binding assay mixtures was 1.5 hours at room temperature in the dark.

Experiment [2] concerns the target T2, rat 5-HT2C (Rattus norvegicus, UniProt P08909).
T2 construct: expressed in transfected cells; host or cells: HEK293 (Flp-In system, pcDNA5.0FRT)
T2 sequence (P08909 33-460): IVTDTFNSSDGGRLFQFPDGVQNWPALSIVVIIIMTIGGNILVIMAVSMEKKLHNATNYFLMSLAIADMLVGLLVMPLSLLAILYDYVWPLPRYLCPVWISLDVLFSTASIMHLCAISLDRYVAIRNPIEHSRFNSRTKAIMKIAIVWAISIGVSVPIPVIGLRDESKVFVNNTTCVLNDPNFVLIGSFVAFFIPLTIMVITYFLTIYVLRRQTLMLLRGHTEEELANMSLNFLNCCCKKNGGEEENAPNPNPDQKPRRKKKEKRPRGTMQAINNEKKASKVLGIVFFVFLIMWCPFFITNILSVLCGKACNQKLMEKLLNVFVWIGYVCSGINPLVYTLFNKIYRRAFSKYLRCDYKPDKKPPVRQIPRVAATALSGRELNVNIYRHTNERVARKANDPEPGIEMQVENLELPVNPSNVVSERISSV
Description: Primary radioligand competitive binding assay, [3H]mesulergine. The following applies: ligand 10 μM, HEK293 cells. The protocol:
as §1, §2

Experiment [3] addresses T3, Rat CB1 (Rattus norvegicus, UniProt P20272).
T3 construct: membrane fractions prepared from rat brain homogenate expressing CB1 receptor; from tissue; host or cells: rat brain homogenate
Description: Radioligand competitive binding, [3H]CP55940, rat brain homogenate. The following applies: for Rat CB1 (%) primary radioligand competitive binding: ligand 10 μM, rat brain homogenates. The protocol:
(§3) CB1 and CB2 radioligand binding data were obtained using National Institute of Mental Health (NIMH) Psychoactive Drug Screening Program (PDSP) resources as described earlier. Compounds were screened in a competitive binding experiment using, respectively, membrane fractions prepared from rat brain homogenate expressing CB1 receptor and HEK293 cells expressing the human CB2 receptor. Experiments were conducted at a range of different concentrations and in duplicate. The competition binding experiment for CB1 and CB2 was performed in 96 well plates containing Standard Binding Buffer (50 mM Tris HCl, 1 mM EDTA, 3 mM MgCl2, 5 mg/ml fatty acid-free BSA, pH 7.4). The radioligand was [^3H]CP55940, and the reference compound was CP55940. A solution of the compound to be tested was prepared as a 1 mg/ml stock in DMSO and then diluted in Standard Binding Buffer by serial dilution. Radioligand was diluted to five times the assay concentration in Standard Binding Buffer. Aliquots (50 μl) of radioligand were dispensed into the wells of a 96-well plate containing 100 μl of Standard Binding Buffer. Then, duplicate 50-μl aliquots of the test and reference compound dilutions were added. Finally, crude membrane fractions of cells were resuspended in 3 ml of chilled Standard Binding Buffer and homogenized by several passages through a 26 gauge needle, then 50 μl were dispensed into each well. The 250-μl reactions were incubated at room temperature for 1.5 hours, and then harvested by rapid filtration onto Whatman GF/B glass fiber filters pre-soaked with 0.3% polyethyleneimine using a 96-well Brandel harverster. Four rapid 500-μl washes were performed. Filters were placed in 6-ml scintillation tubes and allowed to dry overnight. Bound radioactivity was harvested onto 0.3% polyethyleneimine-treated, 96-well filter mats using a 96-well Filtermate harvester. The filter mats were dried, then scintillant was melted onto the filters and the radioactivity retained on the filters counted in a Microbeta scintillation counter. Raw data (dpm) representing total radioligand binding (i.e., specific + non-specific binding) were plotted as a function of the logarithm of the molar concentration of the competitor (i.e., test or reference compound). Non-linear regression of the normalized (i.e., percent radioligand binding compared to that observed in the absence of test or reference compound) raw data was performed in Prism 4.0 (GraphPad Software) using the built-in three parameter logistic model describing ligand competition binding to radioligand-labeled sites: y = bottom + [(top-bottom)/(1 + 10 × -logIC50)] where bottom equals the residual radioligand binding measured in the presence of 10 μM reference compound (i.e., non-specific binding) and top equals the total radioligand binding observed in the absence of competitor. The log IC50 (i.e., the log of the ligand concentration that reduces radioligand binding by 50%) is thus estimated from the data and used to obtain the Ki by applying the Cheng-Prusoff approximation: Ki = IC50/(1 + [ligand]/KD) where [ligand] equals the assay radioligand concentration and KD equals the affinity constant of the radioligand for the target receptor.

The target in experiment [4] is T4, Human CB2 (Homo sapiens, UniProt P34972). As to the kind of experiment: Radioligand competitive binding, [3H]CP55940, HEK293 cells. Also noted: expressed in transfected cells. The following applies: for Human CB2 (%) primary radioligand competitive binding: ligand 10 μM, HEK293 cells. The protocol: as §1, §3
T4 sequence (P34972 whole entry): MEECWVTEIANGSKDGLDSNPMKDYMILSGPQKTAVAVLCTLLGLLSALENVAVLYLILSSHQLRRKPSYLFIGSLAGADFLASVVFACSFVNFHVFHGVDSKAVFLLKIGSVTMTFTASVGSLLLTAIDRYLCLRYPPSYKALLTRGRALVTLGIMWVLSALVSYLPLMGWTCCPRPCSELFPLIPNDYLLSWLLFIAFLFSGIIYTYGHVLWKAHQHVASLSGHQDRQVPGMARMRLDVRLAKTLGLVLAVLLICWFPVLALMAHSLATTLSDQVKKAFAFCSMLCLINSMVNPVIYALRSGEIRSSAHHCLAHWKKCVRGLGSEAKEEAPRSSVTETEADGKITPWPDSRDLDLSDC
The target in experiment [5] is Human CB1 (Homo sapiens, UniProt P21554). Description: GTPγ[35S] functional assay, CHO cell membrane extracts. Also on record: Emax: dose or concentration left out as unconfirmed.
Sequence of Human CB1 (P21554 whole entry): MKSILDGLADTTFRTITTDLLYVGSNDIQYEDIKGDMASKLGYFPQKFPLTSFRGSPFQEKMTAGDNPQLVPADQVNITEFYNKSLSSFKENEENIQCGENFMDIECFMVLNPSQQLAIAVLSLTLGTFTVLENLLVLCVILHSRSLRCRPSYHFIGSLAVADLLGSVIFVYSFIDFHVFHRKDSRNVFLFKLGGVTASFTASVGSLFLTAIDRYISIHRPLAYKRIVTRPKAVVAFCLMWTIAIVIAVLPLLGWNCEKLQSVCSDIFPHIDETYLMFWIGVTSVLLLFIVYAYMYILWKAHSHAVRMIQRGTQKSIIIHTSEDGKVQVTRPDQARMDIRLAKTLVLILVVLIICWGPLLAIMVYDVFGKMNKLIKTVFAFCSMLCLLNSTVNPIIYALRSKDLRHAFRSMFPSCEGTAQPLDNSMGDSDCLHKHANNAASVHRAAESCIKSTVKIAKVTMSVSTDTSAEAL
The target of experiment [6] is T4, Human CB2. Described as above. It counts as biochemical. Also on record: expressed in transfected cells; host or cells: CHO cells (membrane extracts). The settings on record: for Emax: read-out: GTPγ[35S] functional assays Human CB2 Emax.
The target in experiment [7] is T5, N-type calcium channels (Homo sapiens, UniProt Q00975).
T5 construct: expressed in transfected cells; host or cells: tsA-201 cells (general electrophysiology statement)
As to the kind of experiment: Whole-cell patch-clamp on N-type calcium channels. Type of experiment: cell-based. The following applies: n = 5, read-out: effect on N-type calcium channels (inhibition).

T3 sequence (P20272 whole entry): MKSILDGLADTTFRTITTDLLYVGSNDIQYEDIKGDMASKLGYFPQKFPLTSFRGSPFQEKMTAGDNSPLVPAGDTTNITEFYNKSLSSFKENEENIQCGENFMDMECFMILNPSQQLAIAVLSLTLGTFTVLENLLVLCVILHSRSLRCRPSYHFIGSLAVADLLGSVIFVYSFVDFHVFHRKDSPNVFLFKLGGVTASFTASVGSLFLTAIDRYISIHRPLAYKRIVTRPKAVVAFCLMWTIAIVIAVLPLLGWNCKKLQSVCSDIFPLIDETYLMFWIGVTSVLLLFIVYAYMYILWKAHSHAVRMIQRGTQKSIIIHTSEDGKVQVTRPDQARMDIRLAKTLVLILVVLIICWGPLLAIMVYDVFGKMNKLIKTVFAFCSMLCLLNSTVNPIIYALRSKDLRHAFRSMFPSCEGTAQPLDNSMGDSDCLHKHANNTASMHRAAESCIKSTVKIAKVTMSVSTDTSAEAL
T1 sequence (P28223 whole entry): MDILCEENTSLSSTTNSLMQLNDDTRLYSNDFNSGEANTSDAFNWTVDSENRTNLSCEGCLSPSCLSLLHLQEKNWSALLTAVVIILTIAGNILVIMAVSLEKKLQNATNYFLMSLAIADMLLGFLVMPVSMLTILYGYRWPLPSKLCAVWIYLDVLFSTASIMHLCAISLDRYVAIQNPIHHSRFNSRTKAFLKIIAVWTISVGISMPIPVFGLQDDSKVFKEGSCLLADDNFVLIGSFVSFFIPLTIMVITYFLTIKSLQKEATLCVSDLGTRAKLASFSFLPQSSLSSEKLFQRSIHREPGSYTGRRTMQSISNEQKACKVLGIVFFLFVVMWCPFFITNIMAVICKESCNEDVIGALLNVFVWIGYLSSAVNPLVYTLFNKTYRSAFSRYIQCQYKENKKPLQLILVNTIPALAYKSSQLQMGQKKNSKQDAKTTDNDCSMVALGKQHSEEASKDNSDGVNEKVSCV

For the compound `CCCCCn1c2ccc(C(=O)N3CCCCC3)cc2c2ccc(OC)cc21` [NMP-4], the “Human 5-HT2A (%) primary radioligand competitive binding” value in experiment [1] is recorded as 23.9%. In addition, in experiment [2], the “Rat 5-HT2C (%) primary radioligand competitive binding” value was -9.3%. In addition, the Ki – broadly, the dissociation constant of the complex between target and ligand, obtained from inhibition or displacement – in experiment [3] (NA: not active at 1 μM, read-out: Mean Ki Rat CB1) turned out to be 12.8 ± 1.8 nM; in experiment [4] (NA: not active at 1 μM, read-out: Mean Ki Human CB2), 7.5 ± 0.7 nM. The “Rat CB1 (%) primary radioligand competitive binding” value in experiment [3] was 99.3%. Also, in experiment [4], the “Human CB2 (%) primary radioligand competitive binding” value turned out to be 104.4%. Further, the values for the EC50 in experiment [5] and in experiment [6] were 118 ± 4 nM and 9.8 ± 0.3 nM, respectively. In addition, the values for the Emax in experiment [5] (read-out: GTPγ[35S] functional assays Human CB1 Emax) and in experiment [6] were 30.4% and -76.4%, respectively.
As to `CCCCCn1c2c(c3ccc(OC)cc31)CN(C(=O)c1ccccc1)CC2` [NMP-144], in experiment [1], the “Human 5-HT2A (%) primary radioligand competitive binding” value is listed as -5.2%. Further, in experiment [2], the “Rat 5-HT2C (%) primary radioligand competitive binding” value was 13%. Further, in experiment [3], affinity was put at a Ki of 1140 ± 264 nM and the “Rat CB1 (%) primary radioligand competitive binding” value is recorded as 67.4%. The inhibition (commonly the relative decrease from the control value, in per cent) at 10 µM in experiment [7] turned out to be 20%. In experiment [4], the affinity corresponds to a Ki of 706 ± 110 nM and the “Human CB2 (%) primary radioligand competitive binding” value worked out at 90.6%. In experiment [6], a half-maximal effect (EC50) was put at 35.7 ± 13.9 nM and the Emax (commonly the size of the effect at its maximum, as opposed to the concentration needed) is -48.1%.
